Some results are limits rather than exact numbers.

The test system of data set [1] is MG132-induced mutant SOD1 intracellular aggregation in PC12-SOD1^G85R YFP cells. Put plainly: Protection against MG132-induced mut-SOD1 intracellular aggregation (fluorescence microscopy). In kind it is cell-based. As for the experimental part: The PC12 Tet-Off-SOD1^G85R YFP cells were cultured in DMEM media supplemented with 10 % horse serum, 5 % Tet-approved FBS, 1 % Penstrep, 1× L-glutamine, 200 μg/mL hygromycin, 100 μg/mL G418, with 1 μg/mL Doxycycline and were incubated at 37 °C in humidified air with […] until 90–95 % confluency. To induce the expression of SOD1^G85R YFP, the Doxycycline was removed at least 4 days before the experiment. To remove the Doxycycline, the media was removed, and the cells were washed 3 times with 1xPBS. The cells were then cultured in standard culture media without Doxycycline. To set up the assay, the cells were then seeded into 96-well cell culture plates (Greiner Bio-One Catalog #655090) at a concentration of 50,000 cells/well with a final volume of 100 μL/well and incubated in the CO2 incubator at 37 °C for 24 h. The media were removed from the cells and replaced with 100 μL of media containing 0.1 % DMSO or compounds, and incubated in the CO2 incubator at 37 °C for 6 h. The media were then replaced with fresh 100 μL of media containing the diluted compounds with 0.7 μM (−)-MG-132, and the plates were incubated for 72 h under culture conditions. After 72 h, the cells were stained with Hoescht 33,342 (55 μg/mL, 10 μL/well) and imaged (lex = 358, 513 nm) using a Molecular Devices ImageXpress Micro Confocal High-Content Imaging System equipped with a 40× objective. […] Image binning was set to 2. DAPI fluorescence was captured using an exposure time of 300 ms, and FITC fluorescence was captured using an exposure time of 400 ms. A 13-plane z-series was acquired for each field of view with a step size of 3 μm. For each condition, 2 sets of 9 images were generated in a 3 × 3 grid to separately image the SOD1^G85R YFP proteins and the nuclei stained with Hoescht 33,342. Image analysis was performed with MetaXpress software (Molecular Devices) using the Transfluor module. Parameters for puncta detection (aggregates) were set with a minimum pit width of 2 μm and a maximum pit width of 5 μm. Signal intensity thresholds were defined as 700 grayscale units above the local background. The analysis provided the average area of each cell that is covered by puncta (pit/cell), which are indicated by bright green spots on the SOD1^G85RYFP image set.
The assay was performed in triplicate for each condition tested, and wells containing the media with vehicle (0.1 % DMSO) or (−)-MG-132 alone were used as controls representing the minimum and maximum aggregate formation. […] The data for EC50 determination was treated with Prism and fitted using a semi-logarithmic curve for determination of the EC50 values of NU9 and compounds 4, 6, 20 and 21.

A short description of data set [2]: In vitro cytotoxicity, CellTiter-Glo, HepG2. In kind it is cell-based. The settings on record: human, HepG2 cells. As for the experimental part:
(§1) The HepG2 and HEK293 cells were cultured in DMEM media supplemented with 10 % FBS (heat-inactivated), 1 % Pen-strep, and L-glutamine and incubated at 37 °C in humidified air with 5 % CO2 until 85–90 % confluency. The PC12 Tet-Off-SOD1^G85R YFP cells were maintained as described in 4.2. On the day before the experiments, the cells were transferred to white bottom 96 well plates (Greiner cat. 655,083) at a concentration of 50,000 cells/100 μL of media in each well and incubated overnight at 37 °C. Stock solutions of the compounds (30 mM) in DMSO were prepared and then diluted in media to obtain the six final working solutions starting at 30 μM, and serial dilutions were obtained with the lowest concentration at 0.25 μM. The media were removed and fresh media containing the compounds or the vehicle DMSO (0.1 % v/v) were transferred to the plates containing HepG2 and HEK293 cells and the plates were incubated for 24 or 48 h at 37 °C. The PC12 Tet-Off-SOD1^G85R YFP cells compound treatment was performed as described in section 4.2 and using a 9-point 2-fold serial dilution of the compounds starting at 15 μM and the lowest concentration at 0.05 μM. After incubation, the plates were cooled to room temperature and 25 μL of CellTiter-Glo® solution was added to each well. The plates were loaded into a BioTek Synergy H1 MD plate reader and shaken for 2 min, stabilized for 10 min without shaking, and then the luminescence values were read for each well (luminescence integration step 1 ms). Wells containing media with the vehicle DMSO with or without cells were used as controls to represent, respectively, the maximum viability and the lowest viability (background signal) for the cytotoxicity studies with HepG2 and HEK293 cell lines. The viability values for the assay performed with the PC12 Tet-Off-SOD1^G85R YFP cells were normalised for the vehicle (0.1 % DMSO) and (−)-MG-132 alone treatments, which represented respectively the […] viability for the assay.
(§2) The results are presented as an average of three independent experiments, each performed in triplicate, for the cytotoxicity experiments performed with HepG2 and HEK293 cells. The results for the protective screening with the PC12 Tet-Off-SOD1^G85R YFP cells are presented as an average of four replicates.
For orientation: In ATP-based viability assays light output follows the ATP content of the culture.

In a further data set the test system is HepG2 cells. Kind of data set: In vitro cytotoxicity, CellTiter-Glo, HepG2. In kind it is cell-based. The settings on record: cytotoxicity EC50 (HepG2, HEK293) versus PC12-SOD1^G85R EC50. As for the experimental part:
as §1, §2

The nature of data set [3]: In vitro cytotoxicity, CellTiter-Glo, HEK293. Conditions: human, HEK293 cells. In kind it is cell-based. As for the experimental part: as §1, §2
Data set [4] relates to PC12-SOD1^G85R YFP cells co-treated with MG132. Kind of data set: Viability screening against MG132-induced toxicity, CellTiter-Glo. In kind it is cell-based. Conditions: PC12-SOD1^G85R YFP cells co-treated with MG132 and the compounds; read-out: PC12-SOD1^G85R EC50, in vitro viability screening (protection against MG132-induced toxicity). As for the experimental part:
as §1, with “assay. […]” for “assay.”

The conditions of data set [5]: pig, PAMPA, 18 h, 250 μM, pH 7.5. (PAMPA measures passive passage across an artificial lipid membrane.)
Description: (§3) A solution of 1 × PBS (pH 7.5) was initially prepared by the dilution of a commercially available 10 × PBS solution. […] A solution of porcine brain lipid (PBL) (20 mg/mL in dodecane) was prepared, and 4 μL of this solution was used to coat the filters on the bottom of the PAMPA donor plates (Sigma Aldrich #MAIPNTR10). After air drying for 20 min, the donor plate wells were charged with 250 μL of the solutions of the test compounds or the controls. The donor plate was then placed over the acceptor plate (Sigma Aldrich #MATRNPS50), in which wells were previously filled with 1 × PBS (2 % DMSO v/v) solution. The PAMPA sandwich was closed with parafilm and incubated at 25 °C for 18 h in a humidity-saturated atmosphere with orbital agitation. […] The UV spectra (250–400 nm) of each well were acquired on a BioTek Synergy H1 MD plate reader equipped with a monochromator at room temperature.
(§4) CA(t) is the concentration of the compounds at the final time of incubation on the acceptor well; CD(0) and CD(t) are the concentration of the compounds at the initial time of incubation and at the final time of incubation on the donor well, respectively.
Details of data set [6]: method as in PMID 33634973. The settings on record: human microsomes; cited from earlier work.
Details of data set [7]: method as in PMID 33634973. Conditions: mouse microsomes; cited from earlier work.
In data set [8] the test system is cells containing SOD1 mutations associated with ALS. Details: method as in PMID 21073276, PMID 22189273, PMID 22837812. The settings on record: Fig. 1, evolution of CHD series; cited from earlier work.
The test system of data set [9] is primary hippocampal neuronal cells. Details: method as in PMID 40030015. The settings on record: cited from earlier work.
Data set [10] has as its system primary hippocampal neurons. Details: method as in PMID 40030015. The settings on record: cited from earlier work.
Data set [11] in a line: Parallel artificial membrane permeability assay - blood brain barrier (PAMPA-BBB). Conditions: pig, PAMPA, pH 7.5.
Description: as §3, §4

As to `C[C@H](Oc1cc(C(F)(F)F)cc(C(F)(F)F)c1)C1CC(=O)CC(=O)C1` [NU-9], the EC50 in data set [1] (PC12-SOD1^G85R YFP cells, 0.7 μM MG132, 72 h, Inactive = no decrease of aggregates at 10 μM vs vehicle) was 2.52 ± 0.38 µM; in data set [4], 3.37 ± 0.26 µM; in data set [8], 0.3 µM. Further, the “decrease in MG132-induced SOD-1^G85R aggregate formation” value in data set [1] (at 10 μM, 72 h) is given as “marked decrease”. Further, the viability at 24 h, 30 μM in [2] (30 μM, 24 h, relative to untreated cells, read-out: Percentage of viable cells observed at 30 μM treatment, HepG2) was determined as 93.5%; in [3] (30 μM, 24 h, relative to untreated cells, read-out: Percentage of viable cells observed at 30 μM treatment, HEK293) it was 85.7%. Besides, the viability at 48 h, 30 μM in data set [2] (30 μM, 48 h, relative to untreated cells, read-out: Percentage of viable cells observed at 30 μM treatment, HepG2) came to 96.3%; in [3] (30 μM, 48 h, relative to untreated cells, read-out: Percentage of viable cells observed at 30 μM treatment, HEK293) it was 89.6%. The EC50 at 24 h was above 30 µM in data set [2] (cytotoxicity, 24 h) and above 30 µM in [3] (cytotoxicity, 24 h). Besides, the half-maximal effective concentration (EC50) at 48 h is above 30 µM in [2] (cytotoxicity, 48 h) and above 30 µM in data set [3] (cytotoxicity, 48 h). Moreover, the “EC50 Fold difference” value in the data set on HepG2 cells is listed as above 12. Also, in data set [5], the “Log Pe” value is listed as −5.16. For the same compound, the “t1/2 (human)” value in data set [6] is listed as 74^27 min. Moreover, the “t1/2 (mouse)” value in [7] is on record as 52^27 min. Further, in [9], the Amyloid-beta oligomer build-up result is “capable of reducing Amyloid-beta oligomer build-up”. In [10], the LC3II puncta result is given as “capable of increasing LC3II puncta”. Also, in data set [11], the Papp at 18 h, 250 μM came to 6.98 ± 0.14 ×10⁻⁶ cm/s.

In general, EC50 refers to the concentration at which the effect is half-maximal. As usually defined, the Papp is a coefficient for how fast a substance crosses the barrier. Low readings indicate slow passage, high ones fast passage.
